Values after ≈ are worked out from the molar mass of the structure shown. Active and inactive are the calls of the source. No cut-off for these calls is given here.
Experiments:
Salmonella typhi [1] = assay: Antibacterial activity against Salmonella typhi assessed as diameter of zone of inhibition at MIC incubated overnight by disk diffusion method; type: functional, Salmonella enterica subsp. enterica serovar Typhi
Enterococcus faecalis [2] = assay: Antibacterial activity against Enterococcus faecalis MTCC 439 assessed as diameter of zone of inhibition at 0.5 times MIC incubated overnight by disk diffusion method; type: functional
Staphylococcus aureus [3] = assay: Bacteriostatic activity against Staphylococcus aureus MTCC 902 assessed as reduction in bacterial growth at 0.5 to 1 times MIC measured upto 24 hrs by absorbance based assay; type: functional, organism-based
Pseudomonas aeruginosa [4] = assay: Bactericidal activity against Pseudomonas aeruginosa MTCC 2453 assessed as inhibition of bacterial growth incubated overnight; type: functional
Pseudomonas aeruginosa [5] = assay: Synergistic antibacterial activity against Pseudomonas aeruginosa MTCC 2453 assessed as inhibition of bacterial growth incubated overnight in presence of ciprofloxacin by serial dilution based spectrophotometer; type: functional
Bacillus subtilis [6] = assay: Antibacterial activity against Bacillus subtilis MTCC 736 assessed as diameter of zone of inhibition at 2 times MIC incubated overnight by disk diffusion method; type: functional
Salmonella typhi [7] = assay: Antibacterial activity against Salmonella typhi assessed as diameter of zone of inhibition at 0.5 times MIC incubated overnight by disk diffusion method; type: functional, Salmonella enterica subsp. enterica serovar Typhi
Enterococcus faecalis [8] = assay: Antibacterial activity against Enterococcus faecalis MTCC 439 assessed as inhibition of bacterial growth incubated overnight by serial dilution based spectrophotometer; type: functional
Staphylococcus aureus [9] = assay: Antibacterial activity against Staphylococcus aureus MTCC 902 assessed as diameter of zone of inhibition at MIC incubated overnight by disk diffusion method; type: functional
Staphylococcus aureus [10] = assay: Bacteriostatic activity against Staphylococcus aureus MTCC 902 assessed as reduction in bacterial growth at 2 times MIC measured upto 10 hrs by absorbance based assay; type: functional, organism-based
Enterococcus faecalis [11] = assay: Antibacterial activity against Enterococcus faecalis MTCC 439 assessed as inhibition of bacterial growth incubated overnight by spectrophotometry relative to control; type: functional
Escherichia coli [12] = assay: Antibacterial activity against Escherichia coli MTCC 443 assessed as diameter of zone of inhibition at 2 times MIC incubated overnight by disk diffusion method; type: functional
Escherichia coli [13] = assay: Bactericidal activity against Escherichia coli MTCC 443 assessed as inhibition of bacterial growth incubated overnight; type: functional
Enterococcus faecalis [14] = assay: Antibacterial activity against Enterococcus faecalis MTCC 439 assessed as diameter of zone of inhibition at MIC incubated overnight by disk diffusion method; type: functional
Enterococcus faecalis [15] = assay: Bactericidal activity against Enterococcus faecalis MTCC 439 assessed as inhibition of bacterial growth incubated overnight; type: functional
Enterococcus faecalis [16] = assay: Synergistic antibacterial activity against Enterococcus faecalis MTCC 439 assessed as inhibition of bacterial growth incubated overnight in presence of ciprofloxacin by serial dilution based spectrophotometer; type: functional
Staphylococcus aureus [17] = assay: Synergistic antibacterial activity against Staphylococcus aureus MTCC 902 assessed as inhibition of bacterial growth incubated overnight in presence of ciprofloxacin by serial dilution based spectrophotometer; type: functional
Enterococcus faecalis [18] = assay: Antibacterial activity against Enterococcus faecalis MTCC 439 assessed as diameter of zone of inhibition at 500 ug/ml by agar disk diffusion method; type: functional; settings: read-out: DIZ
Escherichia coli [19] = assay: Antibacterial activity against Escherichia coli MTCC 443 assessed as diameter of zone of inhibition at 0.5 times MIC incubated overnight by disk diffusion method; type: functional
Staphylococcus aureus [20] = assay: Synergistic antibacterial activity against Staphylococcus aureus MTCC 902 assessed as fractional inhibitory concentration index incubated overnight in presence of ciprofloxacin by microdilution checkerboard assay; type: functional
Pseudomonas aeruginosa [21] = assay: Antibacterial activity against Pseudomonas aeruginosa MTCC 2453 assessed as diameter of zone of inhibition at MIC incubated overnight by disk diffusion method; type: functional
Escherichia coli [22] = assay: Antibacterial activity against Escherichia coli MTCC 443 assessed as diameter of zone of inhibition at 500 ug/ml by agar disk diffusion method; type: functional; settings: read-out: DIZ
Staphylococcus aureus [23] = assay: Antibacterial activity against Staphylococcus aureus MTCC 902 assessed as diameter of zone of inhibition at 2 times MIC incubated overnight by disk diffusion method; type: functional
Enterococcus faecalis [24] = assay: Antibacterial activity against Enterococcus faecalis MTCC 439 assessed as diameter of zone of inhibition at 2 times MIC incubated overnight by disk diffusion method; type: functional
Staphylococcus aureus [25] = assay: Bacteriostatic activity against Staphylococcus aureus MTCC 902 assessed as reduction in bacterial growth at 2 times MIC measured upto 24 hrs by absorbance based assay; type: functional, organism-based
Pseudomonas aeruginosa [26] = assay: Ratio of MBC for antibacterial activity against Pseudomonas aeruginosa MTCC 2453 to MIC for bactericidal activity against Pseudomonas aeruginosa MTCC 2453; type: functional
Pseudomonas aeruginosa [27] = assay: Antibacterial activity against Pseudomonas aeruginosa MTCC 2453 assessed as diameter of zone of inhibition at 0.5 times MIC incubated overnight by disk diffusion method; type: functional
Bacillus subtilis [28] = assay: Antibacterial activity against Bacillus subtilis MTCC 736 assessed as diameter of zone of inhibition at MIC incubated overnight by disk diffusion method; type: functional
Escherichia coli [29] = assay: Synergistic antibacterial activity against Escherichia coli MTCC 443 assessed as fractional inhibitory concentration index incubated overnight in presence of ciprofloxacin by microdilution checkerboard assay; type: functional
Escherichia coli [30] = assay: Bacteriostatic activity against Escherichia coli MTCC 443 assessed as reduction in bacterial growth at 2 times MIC measured upto 10 hrs by absorbance based assay; type: functional, organism-based
Staphylococcus aureus [31] = assay: Antibacterial activity against Staphylococcus aureus MTCC 902 assessed as inhibition of bacterial growth incubated overnight by spectrophotometry relative to control; type: functional
Bacillus subtilis [32] = assay: Antibacterial activity against Bacillus subtilis MTCC 736 assessed as inhibition of bacterial growth incubated overnight by spectrophotometry relative to control; type: functional
Enterococcus faecalis [33] = assay: Ratio of MBC for antibacterial activity against Enterococcus faecalis MTCC 439 to MIC for bactericidal activity against Enterococcus faecalis MTCC 439; type: functional
Enterococcus faecalis [34] = assay: Synergistic antibacterial activity against Enterococcus faecalis MTCC 439 assessed as fractional inhibitory concentration index incubated overnight in presence of ciprofloxacin by microdilution checkerboard assay; type: functional
Escherichia coli [35] = assay: Antibacterial activity against Escherichia coli MTCC 443 assessed as inhibition of bacterial growth incubated overnight by serial dilution based spectrophotometer; type: functional
Staphylococcus aureus [36] = assay: Bactericidal activity against Staphylococcus aureus MTCC 902 assessed as inhibition of bacterial growth incubated overnight; type: functional
Pseudomonas aeruginosa [37] = assay: Antibacterial activity against Pseudomonas aeruginosa MTCC 2453 assessed as diameter of zone of inhibition at 500 ug/ml by agar disk diffusion method; type: functional; settings: read-out: DIZ
Pseudomonas aeruginosa [38] = assay: Antibacterial activity against Pseudomonas aeruginosa MTCC 2453 assessed as inhibition of bacterial growth incubated overnight by spectrophotometry relative to control; type: functional
Escherichia coli [39] = assay: Bacteriostatic activity against Escherichia coli MTCC 443 assessed as reduction in log phase of bacterial growth at 0.5 to 1 times MIC measured upto 24 hrs by absorbance based assay; type: functional, organism-based
Pseudomonas aeruginosa [40] = assay: Antibacterial activity against Pseudomonas aeruginosa MTCC 2453 assessed as diameter of zone of inhibition at 2 times MIC incubated overnight by disk diffusion method; type: functional
Bacillus subtilis [41] = assay: Antibacterial activity against Bacillus subtilis MTCC 736 assessed as inhibition of bacterial growth incubated overnight by serial dilution based spectrophotometer; type: functional
Escherichia coli [42] = assay: Antibacterial activity against Escherichia coli MTCC 443 assessed as diameter of zone of inhibition at MIC incubated overnight by disk diffusion method; type: functional
Pseudomonas aeruginosa [43] = assay: Antibacterial activity against Pseudomonas aeruginosa MTCC 2453 assessed as inhibition of bacterial growth incubated overnight by serial dilution based spectrophotometer; type: functional
Pseudomonas aeruginosa [44] = assay: Synergistic antibacterial activity against Pseudomonas aeruginosa MTCC 2453 assessed as fractional inhibitory concentration index incubated overnight in presence of ciprofloxacin by microdilution checkerboard assay; type: functional
Staphylococcus aureus [45] = assay: Antibacterial activity against Staphylococcus aureus MTCC 902 assessed as diameter of zone of inhibition at 0.5 times MIC incubated overnight by disk diffusion method; type: functional
Salmonella typhi [46] = assay: Antibacterial activity against Salmonella typhi assessed as inhibition of bacterial growth incubated overnight by serial dilution based spectrophotometer; type: functional, Salmonella enterica subsp. enterica serovar Typhi; settings: Salmonella enterica
Escherichia coli [47] = assay: Synergistic antibacterial activity against Escherichia coli MTCC 443 assessed as inhibition of bacterial growth incubated overnight in presence of ciprofloxacin by serial dilution based spectrophotometer; type: functional
Staphylococcus aureus [48] = assay: Antibacterial activity against Staphylococcus aureus MTCC 902 assessed as inhibition of bacterial growth incubated overnight by serial dilution based spectrophotometer; type: functional
Staphylococcus aureus [49] = assay: Ratio of MBC for antibacterial activity against Staphylococcus aureus MTCC 902 to MIC for bactericidal activity against Staphylococcus aureus MTCC 902; type: functional
Salmonella typhi [50] = assay: Antibacterial activity against Salmonella typhi assessed as diameter of zone of inhibition at 2 times MIC incubated overnight by disk diffusion method; type: functional, Salmonella enterica subsp. enterica serovar Typhi
Staphylococcus aureus [51] = assay: Antibacterial activity against Staphylococcus aureus MTCC 902 assessed as diameter of zone of inhibition at 500 ug/ml by agar disk diffusion method; type: functional; settings: read-out: DIZ

With O=C1Nc2ccc(Cl)cc2/C1=N/CCNc1ccnc2cc(Cl)ccc12 the “diameter of the inhibition zone (DIZ)” value (Salmonella typhi [1]) was 10 mm, the “diameter of the inhibition zone (DIZ)” value (Enterococcus faecalis [2]) was 12 mm and the Activity (Staphylococcus aureus [3]) was “inactive”. For the same compound, the MBC (Pseudomonas aeruginosa [4]) was 128 µg/mL (≈ 332 µM), the MIC (Pseudomonas aeruginosa [5]) was 8 µg/mL and the “diameter of the inhibition zone (DIZ)” value (Bacillus subtilis [6]) was 8 mm. The “diameter of the inhibition zone (DIZ)” value (Salmonella typhi [7]) was 13 mm, the MIC (Enterococcus faecalis [8]) was 512 µg/mL (≈ 1330 µM) and the “diameter of the inhibition zone (DIZ)” value (Staphylococcus aureus [9]) was 15 mm. For the same compound, the Activity (Staphylococcus aureus [10]) was “Active”, the “inhibition (INH)” value (Enterococcus faecalis [11]) was greater than 80% and the “diameter of the inhibition zone (DIZ)” value (Escherichia coli [12]) was 11 mm. The MBC (Escherichia coli [13]) was greater than 512 µg/mL, the “diameter of the inhibition zone (DIZ)” value (Enterococcus faecalis [14]) was 17 mm and the MBC (Enterococcus faecalis [15]) was 512 µg/mL (≈ 1330 µM). It also gave an MIC (Enterococcus faecalis [16]) of 64 µg/mL, an MIC (Staphylococcus aureus [17]) of 64 µg/mL and a zone of inhibition at 500 µg/mL (Enterococcus faecalis [18]) of 8 mm. The “diameter of the inhibition zone (DIZ)” value (Escherichia coli [19]) was 11 mm, the “fractional inhibitory concentration index (FICI)” value (Staphylococcus aureus [20]) was 1.25 and the “diameter of the inhibition zone (DIZ)” value (Pseudomonas aeruginosa [21]) was 18 mm. For the same compound, the zone of inhibition at 500 µg/mL (Escherichia coli [22]) was 11 mm, the “diameter of the inhibition zone (DIZ)” value (Staphylococcus aureus [23]) was 16 mm and the “diameter of the inhibition zone (DIZ)” value (Enterococcus faecalis [24]) was 19 mm. For the same compound, the Activity (Staphylococcus aureus [25]) was “inactive”, the Ratio (Pseudomonas aeruginosa [26]) was 1 and the “diameter of the inhibition zone (DIZ)” value (Pseudomonas aeruginosa [27]) was 13 mm. The “diameter of the inhibition zone (DIZ)” value (Bacillus subtilis [28]) was 6 mm, the “fractional inhibitory concentration index (FICI)” value (Escherichia coli [29]) was 0.249 and the Activity (Escherichia coli [30]) was “Active”. The “inhibition (INH)” value (Staphylococcus aureus [31]) was greater than 80%, the “inhibition (INH)” value (Bacillus subtilis [32]) was greater than 80% and the Ratio (Enterococcus faecalis [33]) was 1. The “fractional inhibitory concentration index (FICI)” value (Enterococcus faecalis [34]) was 1.125, the MIC (Escherichia coli [35]) was 256 µg/mL (≈ 664 µM) and the MBC (Staphylococcus aureus [36]) was 256 µg/mL (≈ 664 µM). The zone of inhibition at 500 µg/mL (Pseudomonas aeruginosa [37]) was 12 mm, the “inhibition (INH)” value (Pseudomonas aeruginosa [38]) was greater than 80% and the Activity (Escherichia coli [39]) was “Active”. For the same compound, the “diameter of the inhibition zone (DIZ)” value (Pseudomonas aeruginosa [40]) was 20 mm, the MIC (Bacillus subtilis [41]) was greater than 512 µg/mL and the “diameter of the inhibition zone (DIZ)” value (Escherichia coli [42]) was 12 mm. For the same compound, the MIC (Pseudomonas aeruginosa [43]) was 128 µg/mL (≈ 332 µM), the “fractional inhibitory concentration index (FICI)” value (Pseudomonas aeruginosa [44]) was 1.062 and the “diameter of the inhibition zone (DIZ)” value (Staphylococcus aureus [45]) was 13 mm. For the same compound, the MIC (Salmonella typhi [46]) was greater than 512 µg/mL, the MIC (Escherichia coli [47]) was 32 µg/mL and the MIC (Staphylococcus aureus [48]) was 256 µg/mL (≈ 664 µM). For the same compound, the Ratio (Staphylococcus aureus [49]) was 1, the “diameter of the inhibition zone (DIZ)” value (Salmonella typhi [50]) was 11 mm and the zone of inhibition at 500 µg/mL (Staphylococcus aureus [51]) was 10 mm.

Reference: ChEMBL document CHEMBL6078713, “Synthesis and mechanistic studies of 4-aminoquinoline-Isatin molecular hybrids and Schiff's bases as promising antimicrobial agents” (Eur J Med Chem, 2025)
